According to patent US20070270521A1, “Transition metal compound, polymerization-initiator system comprising the same, and process for producing polymer” (Sumitomo Chemical Company, Limited, priority 2006, published 2007):

Assays:
Format in all cases: physicochemical
[1] = Saturated solubility of the transition metal compound in a solvent at 23° C.; details: amount dissolved in 10 mL of saturated solution (Note-1)
[2] = Polymer dipped in heptane (transfer of the transition metal compound to heptane); details: poly(butyl acrylate) made at 60° C. in toluene, containing the transition metal compound
Description: Its molecular weight distribution (Mw/Mn) of 3.2 was a single peak distribution. When dipping said polymer in heptane, the transition metal compound contained in said polymer was transferred to heptane, and said polymer was decolorized from red to very pale yellow.
Its molecular weight distribution (Mw/Mn) of 3.9 was a single peak distribution. When dipping said polymer in heptane, the transition metal compound contained in said polymer was hardly transferred to heptane, and said polymer remained red and was not decolorized.

[3] = Color change of the reaction mixture before and after polymerization (stability during polymerization); details: methyl acrylate/ethylene copolymerization in toluene, 150° C., 4 MPa
Procedure: A 400 mL stainless-steel autoclave was dried sufficiently, and a gas in the autoclave was displaced with a nitrogen gas. There was put in the autoclave, at ordinary temperature and atmospheric pressure, 1.61 g of [dodecyl(tetramethyl)cyclopentadienyl]iron carbonyl dimer (transition metal compound) obtained in Reference Example 2, and then, 18 mL of methyl acrylate manufactured by Tokyo Chemical Industry Co., Ltd. and 18 mL of purified toluene as a polymerization solvent were put therein using a syringe. After heating the mixture up to 150° C., ethylene (olefin) was pressed into the autoclave up to its pressure of 4.0 MPa. Finally, 2.0 mL of a toluene solution of 2-iodobutane (manufactured by Tokyo Chemical Industry Co., Ltd.) having a concentration of 1.0 mol/L was put therein, thereby copolymerizing methyl acrylate and ethylene at 150° C. for 10 minutes. The copolymerization reaction mixture was subjected to distillation under reduced pressure to distil away the remaining monomer (methyl acrylate) and the solvent (toluene). The resultant solid was dried for three hours in a vacuum dryer (80° C.), thereby obtaining 8.7 g of a random copolymer of methyl acrylate and ethylene. Both the original mixture before copolymerization and the copolymerization reaction mixture were red. […]

Row | Molecule | Saturated solubility ([1]; hexane) | Polymer dipped in heptane [2] | Color change of the reaction mixture before and after polymerization [3] | Saturated solubility ([1]; toluene)
1 | [dodecyl(tetramethyl)cyclopentadienyl]iron carbonyl dimer | 131.4 mmol | decolorized | non-changed | 
2 | (cyclopentadienyl)iron carbonyl dimer | 2.4 mmol |  |  | 167.3 mmol
3 | Cc1c(C)c(C)[c-](C)c1C.Cc1c(C)c(C)[c-](C)c1C.[C-]#[O+].[C-]#[O+].[C-]#[O+].[C-]#[O+].[Fe+][Fe+] [[(pentamethyl)cyclopentadienyl]iron carbonyl dimer] | 0.8 mmol |  |  | 19.3 mmol
4 | [octyl(tetramethyl)cyclopentadienyl]iron carbonyl dimer | 96.8 mmol |  |  | 
